Measurements as given in ChEMBL document CHEMBL1138665, “Probing the activity differences of simple and complex brominated aryl compounds against 15-soybean, 15-human, and 12-human lipoxygenase” (J Med Chem, 2004).

Experiments:
[1] = Inhibitory effect on soybean 15-lipoxygenase; parameters: species or system Glycine max
[2] = target: T1, Polyunsaturated fatty acid lipoxygenase ALOX15 (Homo sapiens, UniProt P16050); assay: Inhibitory effect on human reticulocyte 15-lipoxygenase
T1 sequence (P16050 whole entry): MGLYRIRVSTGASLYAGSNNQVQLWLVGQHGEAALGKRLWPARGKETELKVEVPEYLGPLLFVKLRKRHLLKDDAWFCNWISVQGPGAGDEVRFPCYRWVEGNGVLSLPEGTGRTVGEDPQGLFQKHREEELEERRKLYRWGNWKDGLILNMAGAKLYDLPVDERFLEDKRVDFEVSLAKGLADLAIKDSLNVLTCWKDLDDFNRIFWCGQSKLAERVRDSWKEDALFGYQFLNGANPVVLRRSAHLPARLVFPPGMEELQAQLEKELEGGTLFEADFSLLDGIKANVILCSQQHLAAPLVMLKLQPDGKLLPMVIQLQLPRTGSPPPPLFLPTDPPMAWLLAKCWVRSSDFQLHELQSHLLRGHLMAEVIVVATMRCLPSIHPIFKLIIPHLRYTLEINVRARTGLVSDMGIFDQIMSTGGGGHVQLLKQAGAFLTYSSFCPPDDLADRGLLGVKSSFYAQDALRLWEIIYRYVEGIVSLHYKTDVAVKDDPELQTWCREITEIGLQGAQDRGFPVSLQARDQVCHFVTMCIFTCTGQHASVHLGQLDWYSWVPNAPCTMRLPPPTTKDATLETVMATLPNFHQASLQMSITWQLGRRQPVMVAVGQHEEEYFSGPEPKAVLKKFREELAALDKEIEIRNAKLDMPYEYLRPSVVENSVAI

[3] = target: T2, Polyunsaturated fatty acid lipoxygenase ALOX12 (Homo sapiens, UniProt P18054); assay: Inhibitory effect on human platelet 12-lipoxygenase
T2 sequence (P18054 whole entry): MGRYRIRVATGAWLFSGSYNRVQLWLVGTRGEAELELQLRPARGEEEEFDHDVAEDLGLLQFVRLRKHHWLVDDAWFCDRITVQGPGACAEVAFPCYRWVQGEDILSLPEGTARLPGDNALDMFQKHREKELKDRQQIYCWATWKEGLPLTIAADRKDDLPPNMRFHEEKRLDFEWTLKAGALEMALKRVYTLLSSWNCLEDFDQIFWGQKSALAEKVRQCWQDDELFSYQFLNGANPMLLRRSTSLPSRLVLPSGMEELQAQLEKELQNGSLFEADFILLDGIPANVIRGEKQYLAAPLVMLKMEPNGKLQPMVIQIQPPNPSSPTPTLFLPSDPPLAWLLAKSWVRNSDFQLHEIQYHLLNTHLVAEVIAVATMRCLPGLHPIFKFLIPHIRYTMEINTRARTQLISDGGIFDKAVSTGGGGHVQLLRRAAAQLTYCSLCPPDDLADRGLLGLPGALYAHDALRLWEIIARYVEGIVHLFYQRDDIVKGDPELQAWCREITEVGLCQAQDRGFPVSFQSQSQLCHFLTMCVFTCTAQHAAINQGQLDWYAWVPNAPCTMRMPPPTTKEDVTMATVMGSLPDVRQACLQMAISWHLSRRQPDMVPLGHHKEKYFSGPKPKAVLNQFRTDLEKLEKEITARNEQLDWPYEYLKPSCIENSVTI

Row | SMILES | IC50 [1] | IC50 [2] | IC50 [3]
1 | CC(Cc1ccc(O)c(O)c1)[C@H](C)Cc1ccc(O)c(O)c1 (stereo not given in full) | 0.18 µM | – | –
2 | Oc1ccccc1Br | > 100 µM | > 100 µM | > 100 µM
3 | Oc1ccc(Br)cc1Br | > 100 µM | – | > 100 µM
4 | CCOc1ccc(Br)cc1 | > 100 µM | > 100 µM | > 100 µM
5 | Oc1ccc(Br)cc1Oc1c(O)ccc(Br)c1Br | > 100 µM | – | 47 µM
6 | COc1cc(Br)cc(Br)c1Oc1cc(Br)cc(Br)c1O | > 100 µM | 10 µM | 12 µM
7 | CC(C)(c1cc(Br)c(O)c(Br)c1)c1cc(Br)c(O)c(Br)c1 | > 100 µM | 4 µM | 10 µM
8 | Oc1cc(Br)cc2c1Oc1cc(Br)cc(Br)c1O2 [SPONGIADIOXIN C] | > 100 µM | 0.8 µM | 30 µM
9 | O=C(N/C=C/c1ccc(O)c(Br)c1)/C(Cc1cc(Br)c(O)c(Oc2c(Br)cc(C/C(=N\O)C(=O)NCCc3ccc(O)c(Br)c3)cc2Br)c1)=N/O | 59 µM | 2 µM | 0.4 µM
10 | Oc1c(Br)cc(Br)cc1Oc1c(Br)cc(Br)c(Br)c1O | > 100 µM | 2.2 µM | 6.2 µM
11 | Oc1c(Br)cc(Br)c(Br)c1Oc1ccc(Br)cc1Br | 9 µM | 5 µM | 6 µM
12 | CC(C)(c1ccc(O)c(Br)c1)c1cc(Br)c(O)c(Br)c1 | > 100 µM | 5 µM | 7 µM
13 | O=C1N/C=C/c2ccc(c(Br)c2)Oc2cc(cc(Br)c2O)CCNC(=O)/C(=N/O)Cc2ccc(c(Br)c2)Oc2cc(cc(Br)c2O)C/C1=N\O [BASTADIN 7] | 27 µM | 4 µM | 2.3 µM
14 | Oc1c(Br)c(Br)c(Br)c(Br)c1Oc1ccc(Br)cc1Br | 7 µM | 1.8 µM | 0.7 µM
15 | Oc1cc(Br)c(Br)c2c1Oc1cc(Br)cc(Br)c1O2 [SPONGIADIOXIN A] | > 100 µM | – | 50 µM
16 | Oc1cccc(Br)c1 | > 100 µM | > 100 µM | > 100 µM
17 | Oc1c(Br)cccc1Br | > 100 µM | > 100 µM | > 100 µM
18 | Oc1ccc(Br)cc1 | 48 µM | 55 µM | > 100 µM
19 | Oc1c(Br)cc(Br)cc1Oc1c(O)c(Br)c(Br)c(Br)c1Br | > 100 µM | 0.79 µM | 0.41 µM
20 | OCc1ccc(Br)cc1 | > 100 µM | > 100 µM | > 100 µM
